Measurements reported in patent US11612605B2, “(+)-azasetron for use in the treatment of ear disorders” (SENSORION, priority 2016, dated 2023).

Test system: SSNHL after acoustic trauma
Test: SSNHL model: acoustic trauma (120 dB octave band noise), ABR and DPOAE audiometry
Assay type: in vivo, male Wistar rats
Description: All experiments were performed using 7-week-old male Wistar rats (CERJ, Le Genest, France) in accordance with the French Ministry of Agriculture regulations and European Community Council Directive no. 86/609/EEC, OJL 358. The rats were fed a standard diet ad libitum and maintained on a 12 hours' light-dark cycle.
Auditory Brainstem Reponses (ABR) and Distortion Product Otoacoustic Emissions (DPOAE) were recording using a RZ6 Auditory Workstation (Tucker-Davis Technologies, Alachua, Fla., USA) with animals deeply anesthetized using 90 mg/kg ketamine and 10 mg/kg xylazine and placed on a 35° C. recirculating heating pad inside a sound attenuating cubicle (Med Associates Inc., St. Albans, Vt., USA) throughout the experiment.
For ABR recordings, three stainless steel needle electrodes were placed subdermally over the vertex, the right mastoid and right hind leg of each animal. Tone-pips (5 msec duration presented at a rate of 21/s) at 8, 16 and 24 kHz were delivered to the right ear using a calibrated MF-1 speaker in closed-field configuration (Tucker-Davis Technologies, Alachua, Fla., USA) at attenuating intensity until no reproducible response could be recorded. Close to the ABR threshold, the responses to 1000 acoustic stimuli in 5 dB steps were averaged. Responses were low-pass filtered at 3 kHz.
DPOAEs were recorded and using ER10B+ Low Noise DPOAE microphone (Etymotic Research, Inc., Elk Grove Village, Ill., USA) with acoustic stimuli delivered by two calibrated MF-1 speakers in closed-field configuration (Tucker-Davis Technologies, Alachua, Fla., USA). DPOAEs were recorded at fixed stimulus levels (L1=L2=70 dB SPL), with an f2/f1 ratio of 1.2. Responses were recorded at 4, 8, 16, 24 and 32 kHz.
Animals were exposed to 120 dB octave band noise (8-16 kHz) for 2 hours in groups of 4 rats, placed in individual compartments of a custom built circular cage placed on a 30-cm diameter platform rotating at 3 turns/minute (Aqila Innovation, Valbonne, France). The calibrated octave band noise generated by the RZ6 SigGen software was further amplified by a Crown D-75 amplifier in bridge mode (Crown Audio, Elkhart, Ind., USA) and delivered by four Beyma CPI6 compression tweeters (Acustica Beyma S. L., Moncada, Valencia, Spain) positioned 39 cm above the rotating platform, each 10 cm from the platform center.
The ability of the racemic and two enantiomers of azasetron hydrochloride to reduce SSNHL after acoustic trauma was evaluated in a randomized, vehicle-controlled study with 7 weeks old male Wistar rats. Rats were randomized to receive 4.22 mg/kg of the racemic, two enantiomers of azasetron or vehicle control (physiological saline) by intraperitoneal injection immediately after acoustic trauma, followed by daily dosing for a total of 14 days. Two days prior to acoustic trauma, baseline audiometric readings using auditory brainstem response (ABR) (8, 16, and 24 kHz) were recorded for each animal. Animals were exposed to 120-dB octave-band noise (8-16 kHz) for 2 hours to induce acoustic trauma.
The ability of the (+)-enantiomer of azasetron hydrochloride to reduce SSNHL after acoustic trauma was evaluated in a randomized, vehicle-controlled study in male Wistar rats, 7 weeks of age. Rats were randomized to receive 5, 10, or 20 mg/kg of the (+)-enantiomer of azasetron hydrochloride or vehicle control (physiological saline) by oral gavage immediately after acoustic trauma, followed by daily dosing for a total of 14 days. Two days prior to acoustic trauma, baseline audiometric readings using auditory brainstem response (ABR) (8, 16, and 24 kHz) and distortion-product otoacoustic emissions (DPOAE) (4, 8, 16, 24, and 32 kHz) were recorded for each animal. Post-trauma audiometry recordings were conducted at 14 days.
The ability of the racemic azasetron hydrochloride by oral administration to reduce SSNHL after acoustic trauma was also evaluated. […]

[1] = 10 mg/kg oral gavage daily 14 days after acoustic trauma
[2] = 10 mg/kg oral gavage daily 14 days, baseline to day 14
[3] = 20 mg/kg oral gavage daily 14 days, baseline to day 14

Row | Structure (SMILES) | protective effect on ABR thresholds [1] | protective effect on DPOAE amplitude loss [1] | ABR threshold shifts compared with racemic azasetron, (−)-enantiomer and vehicle (4.22 mg/kg intraperitoneal, daily for 14 days after acoustic trauma, 8, 16, 24 kHz) | mean improvement in hearing (ABR) [2] | mean reduction of ABR threshold shifts [2] | mean improvement in hearing (ABR) [3] | mean reduction of ABR threshold shifts [3] | mean reduction of DPOAE amplitude loss [3] | reduction of hearing loss (average) by ASLHA criteria versus vehicle control (10- and 20-mg/kg oral doses)
1 | CN1C(=O)COc2c(C(=O)NC3CN4CCC3CC4)cc(Cl)cc21 (racemic) [Racemic azasetron, N-(1-azabicyclo[2.2.2]octan-8-yl)-6-chloro-4-methyl-3-oxo-1,4-benzoxazine-8-carboxamide] | small tendency towards a protective effect | small tendency towards a protective effect | – | – | – | – | – | – | –
2 | CN1C(=O)COc2c(C(=O)N[C@H]3CN4CCC3CC4)cc(Cl)cc21 [(+)-azasetron] | – | – | reduced ABR threshold shifts more than racemic azasetron or (−)-enantiomer | 22.3 dB | 35.1% | 19.4 dB | 30.5% | 51.2% | from moderately severe (56 to 70 dB) to mild/moderate (26 to 40 dB/41 to 55 dB)
